Experimental data as given in ChEMBL document CHEMBL1201862, “PubChem BioAssay data set” (2004).
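Assay format: 96-well plates, 48-hour exposure. Here, GI50 denotes the concentration required for 50% inhibition of growth.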 The source made the active and inactive calls. Rule as the data show it: active = GI50 up to about 1.1 µM and inactive = higher.

What was measured:
Experiment in all cases: NCI tumour cell line growth inhibition, 48 h
MDA-N = tested on: MDA-N
NCI-H460 = tested on: NCI-H460
NCI-H23 = tested on: NCI-H23
HOP-62 = tested on: HOP-62
Hs-578T = tested on: Hs-578T
NCI-H226 = tested on: NCI-H226
PC-3 = tested on: PC-3
UO-31 = tested on: UO-31
OVCAR-4 = tested on: OVCAR-4
SF-539 = tested on: SF-539
ACHN = tested on: ACHN
MOLT-4 = tested on: MOLT-4
786-0 = tested on: 786-0
KM12 = tested on: KM12
HL-60 = tested on: HL-60
RPMI-8226 = tested on: RPMI-8226
NCI/ADR-RES = tested on: NCI/ADR-RES
NCI-H522 = tested on: NCI-H522
A549 = tested on: A549
BT-549 = tested on: BT-549

Row | Structure (SMILES) | GI50 (MDA-N) | GI50 (NCI-H460) | GI50 (NCI-H23) | GI50 (HOP-62) | GI50 (Hs-578T) | GI50 (NCI-H226) | GI50 (PC-3) | GI50 (UO-31) | GI50 (OVCAR-4) | GI50 (SF-539) | GI50 (ACHN) | GI50 (MOLT-4) | GI50 (786-0) | GI50 (KM12) | GI50 (HL-60) | GI50 (RPMI-8226) | GI50 (NCI/ADR-RES) | GI50 (NCI-H522) | GI50 (A549) | GI50 (BT-549)
1 | Cc1cc(S(=O)(=O)[N-]/C(=N/S(=O)(=O)c2cc(Cl)sc2Cl)[n+]2ccc(N(C)C)cc2)c(S)cc1Cl | 34 µM (inactive) | 44.3 µM (inactive) | 34.9 µM (inactive) | 42.3 µM (inactive) | 40.4 µM (inactive) | 39.3 µM (inactive) | 53.8 µM (inactive) | 23.2 µM (inactive) | 37.2 µM (inactive) | 46.6 µM (inactive) | 67 µM (inactive) | 84.3 µM (inactive) | 68.2 µM (inactive) | > 100 µM (inactive) | > 100 µM (inactive) | 47.5 µM (inactive) | > 100 µM (inactive) | 25.4 µM (inactive) | – | –
2 | CC(=O)NNc1nc(C)c(C(/C=C/c2ccc(Cl)cc2)=N\N=C(N)N)s1 | – | > 100 µM (inactive) | > 100 µM (inactive) | > 100 µM (inactive) | – | > 100 µM (inactive) | – | > 100 µM (inactive) | > 100 µM (inactive) | > 100 µM (inactive) | > 100 µM (inactive) | > 100 µM (inactive) | > 100 µM (inactive) | > 100 µM (inactive) | > 100 µM (inactive) | > 100 µM (inactive) | – | > 100 µM (inactive) | > 100 µM (inactive) | –
3 | COC(=O)C12OCC34C(CC5C(C)C6=CC(=O)OC6=CC5(C)C3C(O)C1O)OC(=O)C(O)C24 (centres undefined) | – | 0.204 µM (active) | 0.238 µM (active) | 0.78 µM (active) | – | 0.293 µM (active) | – | 16.1 µM (inactive) | 1.25 µM (inactive) | 0.103 µM (active) | 0.895 µM (active) | 0.153 µM (active) | 0.594 µM (active) | 1.21 µM (inactive) | 0.314 µM (active) | 0.0809 µM (active) | – | 0.533 µM (active) | 1.1 µM (active) | –
4 | N#CC(C(=O)CCC(=O)Nc1ccc(Cl)cc1)c1ccc(Cl)cc1 (centres undefined) | – | > 100 µM (inactive) | > 100 µM (inactive) | > 100 µM (inactive) | – | > 100 µM (inactive) | – | > 100 µM (inactive) | > 100 µM (inactive) | > 100 µM (inactive) | 77.1 µM (inactive) | > 100 µM (inactive) | > 100 µM (inactive) | 91.8 µM (inactive) | > 100 µM (inactive) | > 100 µM (inactive) | – | > 100 µM (inactive) | > 100 µM (inactive) | –
5 | Nc1c(S(=O)(=O)c2ccccc2)c2nc3ccccc3nc2n2c1nc1ccccc12 | – | 34.3 µM (inactive) | 19.4 µM (inactive) | 19.4 µM (inactive) | – | 37.5 µM (inactive) | – | > 100 µM (inactive) | 19.8 µM (inactive) | 11.1 µM (inactive) | > 64.4 µM (inactive) | > 29.4 µM (inactive) | 8.09 µM (inactive) | > 64 µM (inactive) | > 100 µM (inactive) | > 100 µM (inactive) | – | 36.5 µM (inactive) | > 51.5 µM (inactive) | –
6 | CCCCCCCCCCCCCCCCOP(=O)(O)OCC(N)C(=O)O (centres undefined) | 23.5 µM (inactive) | 17.1 µM (inactive) | 27 µM (inactive) | 25 µM (inactive) | 16.1 µM (inactive) | 21 µM (inactive) | 12 µM (inactive) | 12.9 µM (inactive) | 18.7 µM (inactive) | 21.3 µM (inactive) | 16.3 µM (inactive) | 11.5 µM (inactive) | 21.5 µM (inactive) | 12.6 µM (inactive) | – | 18.6 µM (inactive) | 33.3 µM (inactive) | 20.3 µM (inactive) | 21.9 µM (inactive) | –
7 | Cc1ccc(N/N=C/C2=CC(C)(C)C(C#N)(C#N)C(O)=C2C#N)cc1 | 54.8 µM (inactive) | 24.6 µM (inactive) | 39.4 µM (inactive) | 78.3 µM (inactive) | > 100 µM (inactive) | > 100 µM (inactive) | 7.23 µM (inactive) | 37.7 µM (inactive) | 96.8 µM (inactive) | > 100 µM (inactive) | 45.5 µM (inactive) | 30.5 µM (inactive) | 66.4 µM (inactive) | 32.4 µM (inactive) | 17.3 µM (inactive) | 22.2 µM (inactive) | 56 µM (inactive) | > 100 µM (inactive) | 36.5 µM (inactive) | –
8 | O=[N+]([O-])/C(C(Cl)=C(Cl)Cl)=C(/Nc1ccccc1)SCc1ccccc1 | 16.7 µM (inactive) | 19.8 µM (inactive) | 20.1 µM (inactive) | 19.1 µM (inactive) | 44.1 µM (inactive) | 21.2 µM (inactive) | 24.5 µM (inactive) | 20.8 µM (inactive) | 24.7 µM (inactive) | 23.4 µM (inactive) | 28.3 µM (inactive) | 17 µM (inactive) | 17.3 µM (inactive) | 15.3 µM (inactive) | 19.1 µM (inactive) | 14.1 µM (inactive) | 16.2 µM (inactive) | 23.3 µM (inactive) | 17.8 µM (inactive) | –
9 | CC(C)(C)[Si](C)(C)OCC1OC(n2cnc3c(=O)[nH]c(N)nc32)C(O[Si](C)(C)C(C)(C)C)C1O[Si](C)(C)C(C)(C)C (centres undefined) | 1.57 µM (inactive) | 1.32 µM (inactive) | 1.44 µM (inactive) | 2.64 µM (inactive) | 2.46 µM (inactive) | 2.84 µM (inactive) | 1.55 µM (inactive) | 5.11 µM (inactive) | 1.74 µM (inactive) | 2.17 µM (inactive) | 2.08 µM (inactive) | 1.24 µM (inactive) | 1.67 µM (inactive) | 1.64 µM (inactive) | 0.849 µM (active) | 1.14 µM (inactive) | > 100 µM (inactive) | 1.68 µM (inactive) | 2.34 µM (inactive) | –
10 | CC(C)C(=O)N1C(=O)O[C@@H](c2ccccc2)[C@H]1C | – | > 100 µM (inactive) | > 100 µM (inactive) | > 100 µM (inactive) | – | > 100 µM (inactive) | – | > 100 µM (inactive) | > 100 µM (inactive) | > 100 µM (inactive) | > 100 µM (inactive) | > 100 µM (inactive) | > 100 µM (inactive) | > 100 µM (inactive) | > 100 µM (inactive) | > 100 µM (inactive) | – | > 100 µM (inactive) | > 100 µM (inactive) | –
11 | c1ccc(Nc2nnc(CCCCCCCCc3nnc(Nc4ccccc4)o3)o2)cc1 | – | > 100 µM (inactive) | > 100 µM (inactive) | > 100 µM (inactive) | – | > 100 µM (inactive) | > 100 µM (inactive) | > 100 µM (inactive) | > 100 µM (inactive) | > 100 µM (inactive) | > 100 µM (inactive) | > 100 µM (inactive) | > 100 µM (inactive) | > 100 µM (inactive) | > 100 µM (inactive) | – | > 100 µM (inactive) | > 100 µM (inactive) | > 100 µM (inactive) | > 100 µM (inactive)
12 | COc1cc2cc3c4c(cc(OC)c(OC)c4c2cc1OC)CCN3 | – | 21.5 µM (inactive) | 92 µM (inactive) | > 100 µM (inactive) | – | > 100 µM (inactive) | – | 69.2 µM (inactive) | 33.7 µM (inactive) | 14.6 µM (inactive) | 32.5 µM (inactive) | 35.3 µM (inactive) | 48.4 µM (inactive) | 31.6 µM (inactive) | 18.2 µM (inactive) | 20 µM (inactive) | – | 31.3 µM (inactive) | > 100 µM (inactive) | –
13 | COc1ccc(N2C(=O)C(=O)N(c3ccccc3[N+](=O)[O-])C2=S)cc1 | 27 µM (inactive) | 34.3 µM (inactive) | 21 µM (inactive) | 50 µM (inactive) | 22.7 µM (inactive) | 28.2 µM (inactive) | 40.5 µM (inactive) | 34 µM (inactive) | 18.9 µM (inactive) | 30.1 µM (inactive) | 28.4 µM (inactive) | 34.8 µM (inactive) | 33 µM (inactive) | 22.3 µM (inactive) | 46 µM (inactive) | 30.5 µM (inactive) | 23.5 µM (inactive) | 10.7 µM (inactive) | 38.5 µM (inactive) | –
14 | CCOC(=O)c1cc(C)nc2c1c(=O)n(-c1ccccc1)c(=O)n2CCCCN1CCN(c2ccccc2)CC1 | – | – | 77.3 µM (inactive) | > 100 µM (inactive) | > 100 µM (inactive) | > 100 µM (inactive) | 47.9 µM (inactive) | 6.17 µM (inactive) | 34 µM (inactive) | – | 58.1 µM (inactive) | 24.5 µM (inactive) | 73.1 µM (inactive) | 61.8 µM (inactive) | 27 µM (inactive) | 15.7 µM (inactive) | > 100 µM (inactive) | 87.1 µM (inactive) | > 100 µM (inactive) | > 100 µM (inactive)
15 | CC(C)C(=O)/C=C/S/C=C/C(=O)C(C)C | – | 10.8 µM (inactive) | 2.59 µM (inactive) | 21.2 µM (inactive) | 21.6 µM (inactive) | 7 µM (inactive) | – | 4.93 µM (inactive) | 6.17 µM (inactive) | 16.8 µM (inactive) | 2.24 µM (inactive) | – | 2.53 µM (inactive) | 30.3 µM (inactive) | – | – | 2.83 µM (inactive) | 1.19 µM (inactive) | 32.3 µM (inactive) | –
16 | COC(=O)C1CCC2(C)[C@H](CCC3O[C@]32C)[C@@]1(C)CC(=O)c1ccoc1 (some centres undefined) | – | 72.9 µM (inactive) | 71 µM (inactive) | > 100 µM (inactive) | – | > 100 µM (inactive) | – | 27.9 µM (inactive) | > 100 µM (inactive) | > 100 µM (inactive) | 34.4 µM (inactive) | 28.3 µM (inactive) | > 100 µM (inactive) | 42.2 µM (inactive) | 75 µM (inactive) | 52.7 µM (inactive) | – | 21.2 µM (inactive) | > 100 µM (inactive) | –
17 | COc1ccc2cc3[n+](cc2c1OC)CCc1cc2c(cc1-3)OCO2 [BERBERINE CHLORIDE] | – | 12.2 µM (inactive) | 7.35 µM (inactive) | – | 10 µM (inactive) | – | 26.9 µM (inactive) | – | – | 35.3 µM (inactive) | > 100 µM (inactive) | – | > 49.4 µM (inactive) | 7.71 µM (inactive) | 13.6 µM (inactive) | – | – | – | – | –
